Reference: patent US20120214862A1, “MODULATION OF FACTOR 7 EXPRESSION” (ISIS Pharmaceuticals, Inc., priority 2009, published 2012)
In the oligonucleotide strings, read from the 5' end, every base follows the letter of its sugar. An asterisk marks phosphorothioate; unmarked linkages are phosphodiester. Other units and linkages are bracketed, terminal groups are in braces. A string of capitals states the bases alone. e = 2'-O-(2-methoxyethyl) (MOE); [5mC] = 5-methylcytosine; d = 2'-deoxy (DNA)

System: human Factor 7 mRNA
Assay: Antisense inhibition of human Factor 7 mRNA in HepB3 cells, lipofectin, 50 nM, real-time RT-PCR
Type: cell-based
Details: for % Inhibition (human Factor 7 mRNA): 50 nM, ~24 h
Outline: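 4,000 cells/well; ~24 h exposure; RNA isolated; probe set RTS 2927; normalised to RIBOGREEN® total RNA; % inhibition vs untreated.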

[1] = HepB3 cells, lipofectin, 50 nM antisense oligonucleotide, approximately 24 hours, primer probe set RTS 2927, relative to untreated control
[2] = HepB3 cells, gapmers targeted to nucleobases 11830 to 11869 of SEQ ID NO: 1 (Table 9)
[3] = HepB3 cells, gapmers targeted to nucleobases 15188 to 15211 of SEQ ID NO: 1 (Table 13)
[4] = Example 1, HepB3 cells, lipofectin, relative to untreated control cells
[5] = Example 4, HepB3 cells, lipofectin, relative to untreated control
[6] = HepB3 cells, gapmers targeted to nucleobases 14707 to 14732 of SEQ ID NO: 1 (Table 11)
[7] = HepB3 cells, gapmers targeted to nucleobases 13760 to 13789 of SEQ ID NO: 1 (Table 10)

## 416550 (antisense eT*eG*eG*e[5mC]*eT*dG*dG*d[5mC]*dT*dG*dA*dG*dG*dA*dG*eA*e[5mC]*eA*eA*eT) [compound 416550]
[1]
  % Inhibition of human Factor 7 mRNA levels: 55%

## 422251 (antisense eG*e[5mC]*dT*dG*dG*d[5mC]*dT*dG*dA*dG*dG*dA*dG*dA*d[5mC]*eA*eA*eT*eG*eG) [compound 422251]
[2]
  % Inhibition of human Factor 7 mRNA levels: 36%

## 422104 (antisense eG*eG*e[5mC]*eT*eG*dA*dG*dG*dA*dG*dA*d[5mC]*dA*dA*dT*eG*eG*eT*e[5mC]*eA) [compound 422104]
[2]
  % Inhibition of human Factor 7 mRNA levels: 59%

## 422226 (antisense e[5mC]*eA*dT*dG*dG*dT*dG*dA*dT*dG*d[5mC]*dT*dT*d[5mC]*dT*eG*eA*eA*eT*eT) [compound 422226]
[3]
  % Inhibition of human Factor 7 mRNA levels: 41%

## 416430 (antisense eG*e[5mC]*eA*eG*e[5mC]*dT*d[5mC]*d[5mC]*dT*d[5mC]*d[5mC]*dA*dG*dG*dA*eA*e[5mC]*eG*e[5mC]*eG) [compound 416430]
[1]
  % Inhibition of human Factor 7 mRNA levels: 52%

## 416504 (antisense eT*e[5mC]*eA*eG*eA*dA*dA*dA*dG*d[5mC]*dT*d[5mC]*dT*d[5mC]*dA*eA*eG*eA*eA*e[5mC]) [compound 416504]
[1]
  % Inhibition of human Factor 7 mRNA levels: 0%

## 407645 (antisense eG*eA*eG*eA*eG*d[5mC]*dT*dA*dA*dA*d[5mC]*dA*dA*d[5mC]*d[5mC]*eG*e[5mC]*e[5mC]*eT*eT) [compound 407645]
[4]
  % Inhibition (human Factor 7 mRNA): 65%

## 416537 (antisense eT*eG*eA*e[5mC]*e[5mC]*dA*d[5mC]*dT*d[5mC]*dT*dT*d[5mC]*d[5mC]*dG*dA*eG*e[5mC]*eA*eG*e[5mC]) [compound 416537]
[1]
  % Inhibition of human Factor 7 mRNA levels: 55%

## 422250 (antisense e[5mC]*eT*dG*dG*d[5mC]*dT*dG*dA*dG*dG*dA*dG*dA*d[5mC]*dA*eA*eT*eG*eG*eT) [compound 422250]
[2]
  % Inhibition of human Factor 7 mRNA levels: 54%

## 422164 (antisense eG*eA*eG*dA*d[5mC]*dA*dA*dT*dG*dG*dT*d[5mC]*dA*dG*dG*dG*d[5mC]*eT*eG*eG) [compound 422164]
[2]
  % Inhibition of human Factor 7 mRNA levels: 64%

## 422193 (antisense eT*eG*eA*dG*d[5mC]*dG*d[5mC]*dG*dG*dA*dA*dG*dA*dA*dG*dG*dG*eA*e[5mC]*eG) [compound 422193]
[5]
  % Inhibition (human Factor 7 mRNA): 6%

## 422187 (antisense e[5mC]*eG*eG*dA*dA*dG*dA*dA*dG*dG*dG*dA*d[5mC]*dG*dG*dA*dA*eG*eG*eT) [compound 422187]
[5]
  % Inhibition (human Factor 7 mRNA): 28%

## 422149 (antisense e[5mC]*eA*eT*dG*dG*dT*dG*dA*dT*dG*d[5mC]*dT*dT*d[5mC]*dT*dG*dA*eA*eT*eT) [compound 422149]
[3]
  % Inhibition of human Factor 7 mRNA levels: 61%

## 407663 (antisense eT*eT*eG*e[5mC]*eA*dG*dG*d[5mC]*dA*dG*dG*dA*d[5mC]*dT*dG*eG*eT*eG*eG*eT) [compound 407663]
[4]
  % Inhibition (human Factor 7 mRNA): 44%

## 422206 (antisense e[5mC]*eA*eG*d[5mC]*dA*dG*d[5mC]*d[5mC]*dT*dG*dA*dG*dG*d[5mC]*d[5mC]*dA*dG*e[5mC]*eA*eG) [compound 422206]
[6]
  % Inhibition of human Factor 7 mRNA levels: 65%

## 416444 (antisense eA*e[5mC]*eA*eG*eT*dT*d[5mC]*d[5mC]*dG*dG*d[5mC]*d[5mC]*d[5mC]*dT*d[5mC]*eG*eA*eA*eG*eG) [compound 416444]
[1]
  % Inhibition of human Factor 7 mRNA levels: 24%

## 422192 (antisense eG*eA*eG*d[5mC]*dG*d[5mC]*dG*dG*dA*dA*dG*dA*dA*dG*dG*dG*dA*e[5mC]*eG*eG) [compound 422192]
[5]
  % Inhibition (human Factor 7 mRNA): 27%

## 407657 (antisense eG*eG*eG*eA*e[5mC]*dT*d[5mC]*dA*dG*d[5mC]*dA*dA*dG*dA*dG*eT*eG*e[5mC]*eA*eG) [compound 407657]
[4]
  % Inhibition (human Factor 7 mRNA): 26%

## 416560 (antisense eT*eA*eA*eA*eA*d[5mC]*dT*dT*dT*dA*dT*dT*dT*dA*d[5mC]*eA*eA*eG*eA*eG) [compound 416560]
[1]
  % Inhibition of human Factor 7 mRNA levels: 0%

## 422272 (antisense eA*e[5mC]*dT*dG*dA*dG*d[5mC]*dG*d[5mC]*dG*dG*dA*dA*dG*dA*eA*eG*eG*eG*eA) [compound 422272]
[5]
  % Inhibition (human Factor 7 mRNA): 12%

## 416530 (antisense eA*eG*eG*eG*eT*dA*dG*d[5mC]*d[5mC]*dT*dT*dT*dG*d[5mC]*d[5mC]*eT*eT*eG*eG*e[5mC]) [compound 416530]
[1]
  % Inhibition of human Factor 7 mRNA levels: 35%

## 422270 (antisense eT*eG*dA*dG*d[5mC]*dG*d[5mC]*dG*dG*dA*dA*dG*dA*dA*dG*eG*eG*eA*e[5mC]*eG) [compound 422270]
[5]
  % Inhibition (human Factor 7 mRNA): 15%

## 407621 (antisense eA*e[5mC]*eA*eA*e[5mC]*dA*dG*dG*dA*d[5mC]*d[5mC]*dT*dG*d[5mC]*d[5mC]*eA*eT*eG*eG*eA) [compound 407621]
[4]
  % Inhibition (human Factor 7 mRNA): 62%

## 407616 (antisense eT*eG*e[5mC]*eA*eG*dG*dA*d[5mC]*dA*d[5mC]*d[5mC]*d[5mC]*d[5mC]*dG*dT*e[5mC]*eT*eG*e[5mC]*e[5mC]) [compound 407616]
[4]
  % Inhibition (human Factor 7 mRNA): 64%

## 416479 (antisense eG*eA*e[5mC]*eA*eG*d[5mC]*dA*d[5mC]*dA*d[5mC]*dA*dT*dG*dG*dA*eG*eT*e[5mC]*eA*eG) [compound 416479]
Example 6 microwalk, nucleobases 15098 to 15122 of SEQ ID NO: 1, HepB3, lipofectin
  % Inhibition (human Factor 7 mRNA): 47%
[1]
  % Inhibition of human Factor 7 mRNA levels: 56%

## 422203 (antisense e[5mC]*eA*eG*d[5mC]*d[5mC]*dT*dG*dA*dG*dG*d[5mC]*d[5mC]*dA*dG*d[5mC]*dA*dG*eA*eT*e[5mC]) [compound 422203]
[6]
  % Inhibition of human Factor 7 mRNA levels: 52%

## 422170 (antisense eG*e[5mC]*eT*dG*dA*dG*dG*dA*dG*dA*d[5mC]*dA*dA*dT*dG*dG*dT*e[5mC]*eA*eG) [compound 422170]
[2]
  % Inhibition of human Factor 7 mRNA levels: 28%

## 422114 (antisense e[5mC]*eG*e[5mC]*e[5mC]*eA*d[5mC]*d[5mC]*d[5mC]*dG*d[5mC]*d[5mC]*dG*dG*d[5mC]*dT*e[5mC]*eT*eG*e[5mC]*eT) [compound 422114]
[7]
  % Inhibition of human Factor 7 mRNA levels: 50%

## 416447 (antisense e[5mC]*eA*eT*eG*eG*dA*dT*dA*dT*dT*d[5mC]*dA*dA*d[5mC]*dT*eG*eT*eG*eG*eG) [compound 416447]
[1]
  % Inhibition of human Factor 7 mRNA levels: 17%

## 422255 (antisense eA*e[5mC]*d[5mC]*d[5mC]*dG*d[5mC]*d[5mC]*dG*dG*d[5mC]*dT*d[5mC]*dT*dG*d[5mC]*eT*e[5mC]*eA*eT*e[5mC]) [compound 422255]
[7]
  % Inhibition of human Factor 7 mRNA levels: 30%

## 407639 (antisense eT*eT*eT*eG*e[5mC]*dA*dG*d[5mC]*d[5mC]*dA*d[5mC]*dT*d[5mC]*dG*dA*eT*eG*eT*eA*e[5mC]) [compound 407639]
[4]
  % Inhibition (human Factor 7 mRNA): 76%

## 422233 (antisense eG*eG*dT*d[5mC]*dA*dG*dG*dG*d[5mC]*dT*dG*dG*dT*dT*dT*eT*eG*eG*eA*eG) [compound 422233]
[2]
  % Inhibition of human Factor 7 mRNA levels: 46%
